Experimental data: publication PMC11121837, “Impact of Nitric Oxide-Release Kinetics on Antifungal Activity” (Journal of Fungi, 2024)
≈ marks a conversion by molar mass, not a printed value.

Tests used:
C. auris (ATCC MYA-5001) = assay: Checkerboard assay of NO donors with antifungals; type: cell-based, Candida auris
[1] = tested on: Aspergillus fumigatus spores; assay: Susceptibility assay for sporulating fungi (MIC, EUCAST E.Def.9.4); type: cell-based; conditions: for Selectivity Index (IC50 AIR-100 / MIC): A. fumigatus ATCC 1022; for MIC / NO dose at MIC: ATCC1022, Aspergillus fumigatus ATCC 1022 spores; for NO dose at MIC: calculated NO dose at MIC
Candida auris = assay: Susceptibility assay (MIC, broth microdilution, CLSI M27); type: cell-based; conditions: for MIC / NO dose at MIC: Candidozyma auris; for MIC: 24 h; for NO dose at MIC: calculated NO dose at MIC
Cryptococcus neoformans = assay: as above; type: cell-based; conditions: for MIC / NO dose at MIC: Cryptococcus neoformans; for MIC: 72 h; for NO dose at MIC: calculated NO dose at MIC
Candida albicans = assay: as above; type: cell-based; conditions: for MIC: 24 h; for NO dose at MIC: calculated NO dose at MIC
C. auris (MYA-5001) = type: cell-based, Candida auris
[2] = tested on: C. neoformans (ATCC208821); type: cell-based, Cryptococcus neoformans
[3] = tested on: C. neoformans (ATCC 208821); assay: Checkerboard assay of NO donors with antifungals; type: cell-based, Cryptococcus neoformans
[4] = tested on: MatTek EpiAirway tissue (AIR-100); assay: cells; type: cell-based; conditions: Homo sapiens, 24 h, read-out: IC50 (concentration needed to inhibit tissue viability by 50%)
panel of fungal isolates = assay: Susceptibility assays, summary over the panel of fungal isolates; type: cell-based; conditions: IC50 AIR-100 / MIC
[5] = tested on: C. albicans (ATCC MYA-2876); assay: Checkerboard assay of NO donors with antifungals; type: cell-based, Candida albicans
[6] = Characterization of NO release (chemiluminescence nitric oxide analyzer); type: physicochemical; conditions: for [NO]t, total NO released over full duration: pH 7.4; for [NO]max, maximum instantaneous NO concentration / td, duration of NO release: phosphate-buffered saline 10 mM, pH 7.4, 37 °C
[7] = NO donor combined with 5-fluorocytosine
[8] = NO donor combined with amphotericin B
[9] = NO donor combined with butenafine
[10] = NO donor combined with caspofungin
[11] = NO donor combined with fluconazole
[12] = NO donor combined with miconazole
[13] = Cryptococcus neoformans ATCC MYA-4566
[14] = Cryptococcus neoformans ATCC MYA-4567
[15] = ATCC208821, 72 h, Cryptococcus neoformans ATCC 208821
[16] = ATCC208821, Cryptococcus neoformans ATCC 208821
[17] = ATCC14053, Candida albicans ATCC 14053
[18] = ATCC18804, Candida albicans ATCC 18804

## NCCCN(CCCN)/[N+]([O-])=N/O [DPTA/NO, bis(3-aminopropyl) amine/NO]
C. auris (ATCC MYA-5001); [7]
  checkerboard classification: I (indifferent (I))
  ∑FIC: ≥ 1
C. auris (ATCC MYA-5001); [8]
  checkerboard classification: I (indifferent (I))
  ∑FIC: ≥ 1
C. auris (ATCC MYA-5001); [9]
  checkerboard classification: I (indifferent (I))
  ∑FIC: ≥ 1
C. auris (ATCC MYA-5001); [10]
  checkerboard classification: I (indifferent (I))
  ∑FIC: ≥ 1
C. auris (ATCC MYA-5001); [11]
  checkerboard classification: I (indifferent (I))
  ∑FIC: ≥ 1
C. auris (ATCC MYA-5001); [12]
  checkerboard classification: A (additive (A))
  ∑FIC: 0.625
[1]
  Selectivity Index (IC50 AIR-100 / MIC): 14
  MIC: 1250 µg/mL (≈ 6.54 mM)
  NO dose at MIC: 262 µg/mL
Candida auris; C. auris ATCC MYA-5000
  Selectivity Index (IC50 AIR-100 / MIC): 28
Candida auris; C. auris ATCC MYA-5001
  Selectivity Index (IC50 AIR-100 / MIC): 35
Candida auris; C. auris ATCC MYA-5003
  Selectivity Index (IC50 AIR-100 / MIC): 57
Candida auris; Candida auris ATCC MYA-5000
  MIC: 625 µg/mL (≈ 3.27 mM)
  NO dose at MIC: 131 µg/mL
Candida auris; Candida auris ATCC MYA-5001
  MIC: 500 µg/mL (≈ 2.61 mM)
  NO dose at MIC: 105 µg/mL
Candida auris; Candida auris ATCC MYA-5003
  MIC: 310 µg/mL (≈ 1.62 mM)
  NO dose at MIC: 65.3 µg/mL
Cryptococcus neoformans; C. neoformans ATCC 208821
  Selectivity Index (IC50 AIR-100 / MIC): 18
Cryptococcus neoformans; C. neoformans ATCC MYA-4566
  Selectivity Index (IC50 AIR-100 / MIC): 28
Cryptococcus neoformans; C. neoformans ATCC MYA-4567
  Selectivity Index (IC50 AIR-100 / MIC): 28
Cryptococcus neoformans; [13]
  MIC: 625 µg/mL (≈ 3.27 mM)
  NO dose at MIC: 131 µg/mL
Cryptococcus neoformans; [14]
  MIC: 625 µg/mL (≈ 3.27 mM)
  NO dose at MIC: 131 µg/mL
Cryptococcus neoformans; [15]
  MIC: 1000 µg/mL (≈ 5.23 mM)
Cryptococcus neoformans; [16]
  NO dose at MIC: 210 µg/mL
Candida albicans; [17]
  MIC: 625 µg/mL (≈ 3.27 mM)
  NO dose at MIC: 131 µg/mL
Candida albicans; [18]
  MIC: 625 µg/mL (≈ 3.27 mM)
  NO dose at MIC: 131 µg/mL
Candida albicans; C. albicans ATCC 14053
  Selectivity Index (IC50 AIR-100 / MIC): 28
Candida albicans; C. albicans ATCC 18804
  Selectivity Index (IC50 AIR-100 / MIC): 28
Candida albicans; C. albicans ATCC MYA-2876
  Selectivity Index (IC50 AIR-100 / MIC): 35
Candida albicans; Candida albicans ATCC MYA-2876
  MIC: 500 µg/mL (≈ 2.61 mM)
  NO dose at MIC: 105 µg/mL
C. auris (MYA-5001)
  change in MIC or MFCs after serial passaging: no changes
[2]
  outcome of passaging at sub-MIC dose: yeast death after the second passage
[3]; [7]
  checkerboard classification: I (indifferent (I))
  ∑FIC: ≥ 1
[3]; [8]
  checkerboard classification: I (indifferent (I))
  ∑FIC: ≥ 1
[3]; [9]
  checkerboard classification: I (indifferent (I))
  ∑FIC: ≥ 1
[3]; [10]
  checkerboard classification: I (indifferent (I))
  ∑FIC: ≥ 1
[3]; [11]
  checkerboard classification: I (indifferent (I))
  ∑FIC: ≥ 1
[3]; [12]
  checkerboard classification: S (Synergistic (S))
  ∑FIC: 0.375
[4]
  IC50: 18000 µg/mL (≈ 94.1 mM)
Panel of fungal isolates
  selectivity indices, all strains: below 100
[5]; [7]
  checkerboard classification: I (indifferent (I))
  ∑FIC: ≥ 1
[5]; [8]
  checkerboard classification: I (indifferent (I))
  ∑FIC: ≥ 1
[5]; [9]
  checkerboard classification: I (indifferent (I))
  ∑FIC: ≥ 1
[5]; [10]
  checkerboard classification: I (indifferent (I))
  ∑FIC: ≥ 1
[5]; [11]
  checkerboard classification: I (indifferent (I))
  ∑FIC: ≥ 1
[5]; [12]
  checkerboard classification: I (indifferent (I))
  ∑FIC: ≥ 1
[6]
  [NO]t, total NO released over full duration: 7.0 ± 1.1 µmol/mg
  [NO]max, maximum instantaneous NO concentration: 2867 ± 211 ppb mg^−1
  td, duration of NO release: 31.0 ± 3.3 h

## NCCN(CCN)/[N+]([O-])=N/O [DETA/NO, diethylenetriamine/NO]
C. auris (ATCC MYA-5001); [7]
  checkerboard classification: I (indifferent (I))
  ∑FIC: ≥ 1
C. auris (ATCC MYA-5001); [8]
  checkerboard classification: I (indifferent (I))
  ∑FIC: ≥ 1
C. auris (ATCC MYA-5001); [9]
  checkerboard classification: I (indifferent (I))
  ∑FIC: ≥ 1
C. auris (ATCC MYA-5001); [10]
  checkerboard classification: I (indifferent (I))
  ∑FIC: ≥ 1
C. auris (ATCC MYA-5001); [11]
  checkerboard classification: I (indifferent (I))
  ∑FIC: ≥ 1
C. auris (ATCC MYA-5001); [12]
  checkerboard classification: I (indifferent (I))
  ∑FIC: ≥ 1
[1]
  Selectivity Index (IC50 AIR-100 / MIC): 150
  MIC: 320 µg/mL (≈ 1.96 mM)
  NO dose at MIC: 60.5 µg/mL
Candida auris; C. auris ATCC MYA-5000
  Selectivity Index (IC50 AIR-100 / MIC): 77
Candida auris; C. auris ATCC MYA-5001
  Selectivity Index (IC50 AIR-100 / MIC): 1595
Candida auris; C. auris ATCC MYA-5003
  Selectivity Index (IC50 AIR-100 / MIC): 154
Candida auris; Candida auris ATCC MYA-5000
  MIC: 625 µg/mL (≈ 3.83 mM)
  NO dose at MIC: 117 µg/mL
Candida auris; Candida auris ATCC MYA-5001
  MIC: 30 µg/mL (≈ 0.184 mM)
  NO dose at MIC: 5.65 µg/mL
Candida auris; Candida auris ATCC MYA-5003
  MIC: 310 µg/mL (≈ 1.9 mM)
  NO dose at MIC: 58.4 µg/mL
Cryptococcus neoformans; C. neoformans ATCC 208821
  Selectivity Index (IC50 AIR-100 / MIC): 191
Cryptococcus neoformans; C. neoformans ATCC MYA-4566
  Selectivity Index (IC50 AIR-100 / MIC): 613
Cryptococcus neoformans; C. neoformans ATCC MYA-4567
  Selectivity Index (IC50 AIR-100 / MIC): 154
Cryptococcus neoformans; [13]
  MIC: 78 µg/mL (≈ 0.478 mM)
  NO dose at MIC: 14.7 µg/mL
Cryptococcus neoformans; [14]
  MIC: 310 µg/mL (≈ 1.9 mM)
  NO dose at MIC: 58.4 µg/mL
Cryptococcus neoformans; [15]
  MIC: 250 µg/mL (≈ 1.53 mM)
Cryptococcus neoformans; [16]
  NO dose at MIC: 47 µg/mL
Candida albicans; [17]
  MIC: 625 µg/mL (≈ 3.83 mM)
  NO dose at MIC: 117 µg/mL
Candida albicans; [18]
  MIC: 625 µg/mL (≈ 3.83 mM)
  NO dose at MIC: 117 µg/mL
Candida albicans; C. albicans ATCC 14053
  Selectivity Index (IC50 AIR-100 / MIC): 77
Candida albicans; C. albicans ATCC 18804
  Selectivity Index (IC50 AIR-100 / MIC): 77
Candida albicans; C. albicans ATCC MYA-2876
  Selectivity Index (IC50 AIR-100 / MIC): 383
Candida albicans; Candida albicans ATCC MYA-2876
  MIC: 125 µg/mL (≈ 0.766 mM)
  NO dose at MIC: 23.5 µg/mL
C. auris (MYA-5001)
  change in MIC or MFCs after serial passaging: no change
[2]
  change in MIC or MFCs after serial passaging: no change
[3]; [7]
  checkerboard classification: I (indifferent (I))
  ∑FIC: ≥ 1
[3]; [8]
  checkerboard classification: I (indifferent (I))
  ∑FIC: ≥ 1
[3]; [9]
  checkerboard classification: A (additive (A))
  ∑FIC: 0.500
[3]; [10]
  checkerboard classification: I (indifferent (I))
  ∑FIC: ≥ 1
[3]; [11]
  checkerboard classification: I (indifferent (I))
  ∑FIC: ≥ 1
[3]; [12]
  checkerboard classification: A (additive (A))
  ∑FIC: 0.562
[4]
  IC50: 48000 µg/mL (≈ 294 mM)
[5]; [7]
  checkerboard classification: I (indifferent (I))
  ∑FIC: ≥ 1
[5]; [8]
  checkerboard classification: I (indifferent (I))
  ∑FIC: ≥ 1
[5]; [9]
  checkerboard classification: I (indifferent (I))
  ∑FIC: ≥ 1
[5]; [10]
  checkerboard classification: I (indifferent (I))
  ∑FIC: ≥ 1
[5]; [11]
  checkerboard classification: I (indifferent (I))
  ∑FIC: ≥ 1
[5]; [12]
  checkerboard classification: S (Synergistic (S))
  ∑FIC: 0.375
[6]
  [NO]t, total NO released over full duration: 6.3 ± 0.6 µmol/mg
  [NO]max, maximum instantaneous NO concentration: 735 ± 94 ppb mg^−1
  td, duration of NO release: 107.6 ± 19.9 h
